Test results as given in patent US6355799B1, “Substituted benzene compounds, process for their preparation, and herbicidal and defoliant compositions containing them” (ISK Americas Incorporated, priority 1997, dated 2002).

Tests used:
Assay type in all cases: in vivo
[1] = tested on: green foxtail (Setaria viridis, SETVI); experiment: Pre-emerge test, greenhouse herbicide activity screening; details: pre-emerge, 14 days after application, rating scale 0-100
In short: (§1)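 Compounds in acetone were track-sprayed at 15–1000 g ai/ha: pre-emergence onto soil sown the previous day, then top-watered to incorporate and later bottom-watered; post-emergence onto 2–3 leaf plants with 0.25% v/v surfactant, bottom-watered only. Ratings on a 0–100 phytotoxicity scale were taken at day 14.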

[2] = tested on: ivyleaf morningglory (Ipomoea hederacea, IPOHE); experiment: as above; details: pre-emerge, 14 days after application, rating scale 0-100
In short: as §1

[3] = tested on: lambsquarters (Chenopodium album, CHEAL); experiment: as above; details: pre-emerge, 14 days after application, rating scale 0-100
In short: as §1

[4] = tested on: sicklepod (Cassia obtusifolia, CASOB); experiment: as above; details: pre-emerge, 14 days after application, rating scale 0-100
In short: as §1

[5] = tested on: johnsongrass (Sorghum halepense, SORHA); experiment: as above; details: pre-emerge, 14 days after application, rating scale 0-100
In short: as §1

[6] = tested on: velvetleaf (Abutilon theophrasti, ABUTH); experiment: as above; details: pre-emerge, 14 days after application, rating scale 0-100
In short: as §1

[7] = tested on: barnyardgrass (Echinochloa crus-galli, ECHCG); experiment: as above; details: pre-emerge, 14 days after application, rating scale 0-100
In short: as §1

[8] = tested on: large crabgrass (Digitaria sanguinalis, DIGSA); experiment: as above; details: pre-emerge, 14 days after application, rating scale 0-100
In short: as §1

[9] = tested on: field corn (Zea mays L., var. Dekalb 535, CORN); experiment: Pre-emerge test, crop safety; details: pre-emerge, 14 days after application, rating scale 0-100
In short: (§2)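 Fourteen days after spraying, crop and weed injury was graded visually from 0, no effect, to 100, every plant dead. Test substances were dissolved in acetone and applied at 15–1000 g ai/ha with a flat-fan nozzle. Application was either pre-emergence, one day after sowing, or post-emergence at the 2–3 leaf stage.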

[10] = tested on: upland rice (Oryza sp., var. Tebonnet, RICE); experiment: Pre-emerge test, crop safety; details: pre-emerge, 14 days after application, rating scale 0-100
In short: as §2

[11] = tested on: green foxtail (Setaria viridis, SETVI); experiment: Post-emerge test, greenhouse herbicide activity screening; details: post-emerge, 14 days after application, rating scale 0-100
In short: (§3)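 Compounds in acetone were track-sprayed at 15-1000 g ai/ha (187 l/ha) on sandy loam pots: pre-emerge one day after seeding, post-emerge at 2-3 leaf stage with 0.25% v/v non-ionic surfactant. Phytotoxicity was rated 14 days later on a 0 (no damage) to 100 (complete death) scale.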

[12] = tested on: ivyleaf morningglory (Ipomoea hederacea, IPOHE); experiment: as above; details: post-emerge, 14 days after application, rating scale 0-100
In short: as §3

[13] = tested on: sicklepod (Cassia obtusifolia, CASOB); experiment: as above; details: post-emerge, 14 days after application, rating scale 0-100
In short: as §3

[14] = tested on: redroot pigweed (Amaranthus retroflexus, AMARE); experiment: as above; details: post-emerge, 14 days after application
In short: as §3

[15] = tested on: johnsongrass (Sorghum halepense, SORHA); experiment: as above; details: post-emerge, 14 days after application, rating scale 0-100
In short: as §3

[16] = tested on: velvetleaf (Abutilon theophrasti, ABUTH); experiment: as above; details: post-emerge, 14 days after application, rating scale 0-100
In short: as §3

[17] = tested on: barnyardgrass (Echinochloa crus-galli, ECHCG); experiment: as above; details: post-emerge, 14 days after application, rating scale 0-100
In short: as §3

[18] = tested on: large crabgrass (Digitaria sanguinalis, DIGSA); experiment: as above; details: post-emerge, 14 days after application, rating scale 0-100
In short: as §3

[19] = tested on: field corn (Zea mays L., var. Dekalb 535, CORN); experiment: Post-emerge test, crop safety; details: post-emerge, 14 days after application, rating scale 0-100
In short: (§4)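 Rating: 0–100 visual injury, 14 DAA. Application: acetone, 187 l/ha, 15–1000 g ai/ha, flat-fan track sprayer with nozzle 40–45 cm above soil or canopy. Post-emerge runs used 0.25% v/v surfactant on 2–3 leaf plants.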

[20] = tested on: upland rice (Oryza sp., var. Tebonnet, RICE); experiment: Post-emerge test, crop safety; details: post-emerge, 14 days after application, rating scale 0-100
In short: as §4

[21] = tested on: redroot pigweed (Amaranthus retroflexus, AMARE); experiment: Pre-emerge test, greenhouse herbicide activity screening; details: pre-emerge, 14 days after application, rating scale 0-100
In short: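 Plants grown in 10 cm pots of sandy loam mix received acetone-dissolved compounds through a moving flat-fan nozzle. Doses ranged from 15 to 1000 g ai/ha. Pre-emerge pots were seeded one day earlier, post-emerge pots 8–21 days earlier. Fourteen days on, each pot was graded 0–100 for damage.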

With COc1c(Cl)cc(F)c(-n2c(=O)cc(C(F)(F)F)n(C)c2=O)c1NNC(=O)C1CC1 [Compound 15-2, 3-[4-chloro-2-(2-cycopropanecarbonyldiazanyl)-6-fluoro-3-methoxyphenyl]-1-methyl-6-trifluoromethyl-2,4(1H, 3H)-pyrimidinedione] the “phytotoxicity rating SETVI” value ([1]; 63 g ai/ha) was 100, the “phytotoxicity rating SETVI” value ([1]; 250 g ai/ha) was 100 and the “phytotoxicity rating IPOHE” value ([2]; 63 g ai/ha) was 10. For the same compound, the “phytotoxicity rating IPOHE” value ([2]; 250 g ai/ha) was 100, the “phytotoxicity rating CHEAL” value ([3]; 63 g ai/ha) was 100 and the “phytotoxicity rating CHEAL” value ([3]; 250 g ai/ha) was 100. For the same compound, the “phytotoxicity rating CASOB” value ([4]; 63 g ai/ha) was 100, the “phytotoxicity rating CASOB” value ([4]; 250 g ai/ha) was 100 and the “phytotoxicity rating SORHA” value ([5]; 63 g ai/ha) was 100. For the same compound, the “phytotoxicity rating SORHA” value ([5]; 250 g ai/ha) was 100, the “phytotoxicity rating ABUTH” value ([6]; 63 g ai/ha) was 100 and the “phytotoxicity rating ABUTH” value ([6]; 250 g ai/ha) was 100. The “phytotoxicity rating ECHCG” value ([7]; 63 g ai/ha) was 100, the “phytotoxicity rating ECHCG” value ([7]; 250 g ai/ha) was 100 and the “phytotoxicity rating DIGSA” value ([8]; 63 g ai/ha) was 100. For the same compound, the “phytotoxicity rating DIGSA” value ([8]; 250 g ai/ha) was 100, the “phytotoxicity rating CORN” value ([9]; 63 g ai/ha) was 80 and the “phytotoxicity rating CORN” value ([9]; 250 g ai/ha) was 100. The “phytotoxicity rating RICE” value ([10]; 63 g ai/ha) was 99, the “phytotoxicity rating RICE” value ([10]; 250 g ai/ha) was 100 and the “Post-emerge Herbicidal Activity SETVI (phytotoxicity rating)” value ([11]; 63 g ai/ha) was 0. The “Post-emerge Herbicidal Activity SETVI (phytotoxicity rating)” value ([11]; 250 g ai/ha) was 80, the “Post-emerge Herbicidal Activity IPOHE (phytotoxicity rating)” value ([12]; 63 g ai/ha) was 90 and the “Post-emerge Herbicidal Activity IPOHE (phytotoxicity rating)” value ([12]; 250 g ai/ha) was 100. For the same compound, the “Post-emerge Herbicidal Activity CASOB (phytotoxicity rating)” value ([13]; 63 g ai/ha) was 10, the “Post-emerge Herbicidal Activity CASOB (phytotoxicity rating)” value ([13]; 250 g ai/ha) was 75 and the “Post-emerge Herbicidal Activity AMARE (phytotoxicity rating)” value ([14]; 63 g ai/ha, rating scale 0-100 (0 no damage, 100 complete death)) was 20. For the same compound, the “Post-emerge Herbicidal Activity AMARE (phytotoxicity rating)” value ([14]; 250 g ai/ha, rating scale 0-100) was 95, the “Post-emerge Herbicidal Activity SORHA (phytotoxicity rating)” value ([15]; 63 g ai/ha) was 0 and the “Post-emerge Herbicidal Activity SORHA (phytotoxicity rating)” value ([15]; 250 g ai/ha) was 70. The “Post-emerge Herbicidal Activity ABUTH (phytotoxicity rating)” value ([16]; 63 g ai/ha) was 80, the “Post-emerge Herbicidal Activity ABUTH (phytotoxicity rating)” value ([16]; 250 g ai/ha) was 100 and the “Post-emerge Herbicidal Activity ECHCG (phytotoxicity rating)” value ([17]; 63 g ai/ha) was 0. The “Post-emerge Herbicidal Activity ECHCG (phytotoxicity rating)” value ([17]; 250 g ai/ha) was 90, the “Post-emerge Herbicidal Activity DIGSA (phytotoxicity rating)” value ([18]; 63 g ai/ha) was 0 and the “Post-emerge Herbicidal Activity DIGSA (phytotoxicity rating)” value ([18]; 250 g ai/ha) was 80. For the same compound, the “Post-emerge Herbicidal Activity CORN (crop damage rating)” value ([19]; 63 g ai/ha) was 15, the “Post-emerge Herbicidal Activity CORN (crop damage rating)” value ([19]; 250 g ai/ha) was 80 and the “Post-emerge Herbicidal Activity RICE (crop damage rating)” value ([20]; 63 g ai/ha) was 50. For the same compound, the “Post-emerge Herbicidal Activity RICE (crop damage rating)” value ([20]; 250 g ai/ha) was 75, the “phytotoxicity rating AMARE” value ([21]; 63 g ai/ha) was 100 and the “phytotoxicity rating AMARE” value ([21]; 250 g ai/ha) was 100.
